Drawing on ChEMBL document CHEMBL2407053, “Pharbinilic acid, an allogibberic acid from morning glory (Pharbitis nil)” (J Nat Prod, 2013), this text covers IC50 and Activity for 1 compound.

In one data set the test system is A549. Kind of data set: Cytotoxicity against human A549 cells by sulforhodamine B assay. It is filed as functional, cell-based.
Data set [1] relates to BV-2. As to the kind of experiment: Cytotoxicity against mouse BV2 cells by MTT assay. It is filed as cell-based.
The test system of data set [2] is BV-2. As to the kind of experiment: Antiinflammatory activity against mouse BV2 cells assessed as inhibition of LPS-induced NO production incubated for 30 mins prior to LPS-challenge measured after 24 hrs by Griess assay. It is filed as functional, cell-based.
The test system of another data set is HCT-15. As to the kind of experiment: Cytotoxicity against human HCT15 cells by sulforhodamine B assay. The data set is classed as functional, cell-based.
Another data set relates to SK-MEL-2. As to the kind of experiment: Cytotoxicity against human SK-MEL-2 cells by sulforhodamine B assay. It is filed as functional, cell-based.
Another data set has as its system SK-OV-3. As to the kind of experiment: Cytotoxicity against human SKOV3 cells by sulforhodamine B assay. It is filed as functional, cell-based.

As to `C=C1C[C@]23C[C@@]1(O)CC[C@H]2c1cc2c(C(=O)O)coc2c(C)c1[C@@H]3C(=O)O`, the half-inhibitory concentration (IC50) in the data set with A549 was determined as 15.7 µM; in the data set on BV-2 [2] it was 32.9 µM; in the data set with HCT-15, 6.79 µM; in the data set with SK-MEL-2 it was 8.36 µM; with SK-OV-3, 4.83 µM. The Activity result with BV-2 [1] is “Non-toxic”.
